Data set [1] addresses T1, human MCHR1 (Homo sapiens, UniProt Q99705).
T1 construct: The full-length cDNA for human MCHR1 was cloned; expressed in transfected cells; host or cells: AV12 cells previously transfected with the promiscuous G protein G(alpha)15; membranes
Kind of data set: competitive 125I-MCH binding assay with clone 43 membranes (SPA). As to conditions: 125I-MCH (100 pM) displacement, Ki from IC50 by Cheng-Prusoff, tested in duplicate. The protocol: (§1) The full-length cDNA for human MCHR1 was cloned from a human adult brain cDNA library (Edge Biosystems, Cat. 38356) by standard polymerase chain reaction (PCR) methodology employing the following primers: sense, 5′-GCCACCATGGACCT GGAAGCCTCGCTGC-3′; anti-sense, 5′-[…]-3′. The PCR reaction was performed in a final volume of 50 μl containing 5 μl of a 10× stock solution of PCR buffer, 1 μl of 10 mM dNTP mixture (200 μM final), 2 μl of 50 mM Mg(SO4) (2 mM final), 0.5 μl of 20 μM solutions of each primer (0.2 μM final), 5 μl of template cDNA containing 0.5 ng DNA, 0.5 μl of Platinum Taq High Fidelity DNA polymerase (Gibco Life Technologies) and 36 μl of H2O. PCR amplification was performed on a Perkin Elmer 9600 thermocycler. After denaturation for 90 sec at 94° C., the amplification sequence consisting of 94° C. for 25 sec, 55° C. for 25 sec and 72° C. for 2 min was repeated 30 times, followed by a final elongation step at 72° C. for 10 min. The desired PCR product (1.1 Kb) was confirmed by agarose gel electrophoresis and the band was extracted from the gel by Geneclean (Bio101) following the manufacturer's instructions. Following extraction, the cDNA fragment was cloned into pCR2.1-TOPO plasmid (Invitrogen) to confirm the identity and sequence.
(§2) In order to generate cell lines stably expressing MCHR1, the insert was then subcloned into the Xba I and Not I sites of pcDNA(+)-3.1-neomycin (Invitrogen). After purification by Qiagen Maxi-prep kit (QIAGEN, Inc.), the plasmid was transfected by Fugene 6 (Roche Applied Science) into AV12 cells that had been previously transfected with the promiscuous G protein G[…]15. The transfected cells were selected by G418 (800 μg/ml) for. 10-14 days and single colonies were isolated from culture plates. The G418-resistant colonies were further selected for MCHR1 expression by measuring MCH-stimulated Ca^2+ transients with a fluorometric imaging plate reader (FLIPR, Molecular Devices).
Both the ^125I-MCH binding and functional GTPγ^35S binding assays employed membranes isolated from a clone designated as clone 43. Typically, cells from 20 confluent T225 flasks were processed by washing the monolayers in cold phosphate-buffered saline (PBS), scraping the cells into same and re-suspending the cell pellet in 35 ml of 250 mM Sucrose, 50 mM HEPES, pH 7.5, 1 mM MgCl2, 24 μg/ml DNase I, and protease inhibitors (1 Complete® tablet, per 50 ml of buffer prepared, Roche Diagnostics). After incubation on ice for 5 min, cells were disrupted with 20-25 strokes of a Teflon/Glass homogenizer attached to an overhead motorized stirrer, and the homogenate was centrifuged at 40,000 rpm in Beckman Type 70.1 Ti rotor. The pellets were re-suspended in 250 mM Sucrose, 50 mM HEPES, pH 7.5, 1.5 mM CaCl2, 1 mM MgSO4 and protease inhibitors by Teflon/Glass homogenization to achieve a protein concentration of ˜3-5 mg/ml (Pierce BCA assay with Bovine serum albumin as standard). Aliquots were stored at −70° C.
Binding of compounds to MCHR1 was assessed in a competitive binding assay employing ^125I-MCH, compound and clone 43 membranes. Briefly, assays are carried out in 96-well Costar 3632 white opaque plates in a total volume of 200 μl containing 25 mM HEPES, pH 7.5, 10 mM CaCl2, 2 mg/ml bovine serum albumin, 0.5% dimethyl sulfoxide (DMSO), 4 μg of clone 43 membranes, 100 pM ^125I-MCH (NEN), 1.0 mg of wheat germ agglutinin scintillation proximity assay beads (WGA-SPA beads, Amersham) and a graded dose of test compound. Non-specific binding is assessed in the presence of 1 μM unlabeled MCH. Bound ^125I-MCH is determined by placing sealed plates in a Microbeta Trilux (Wallac) and counting after a 5 hr delay.
IC50 values (defined as the concentration of test compound required to reduce specific binding of ^125I-MCH by 50%) are determined by fitting the concentration-response data to a 4-parameter model (max response, min response, Hill coefficient, IC50) using Excel. […]

In data set [2] the target is T1, human MCHR1. Kind of data set: inhibition of MCH-stimulated GTPγ35S binding to clone 43 membranes (functional antagonism). The settings on record: 40 nM MCH-stimulated GTPγ35S binding, Kb from IC50 by modified Cheng-Prusoff (Leff and Dougal), tested in duplicate. The data set is classed as biochemical. How it is done:
as §1
as §2, with “Devices). […]” for “Devices).”
Functional antagonism of MCH activity is assessed by measuring the ability of test compound to inhibit MCH-stimulated binding of GTPγ^35S to clone 43 membranes. […]

Molecules are shown by their SMILES. pKi: −log10 of the molar value.

T1 sequence (Q99705 whole entry): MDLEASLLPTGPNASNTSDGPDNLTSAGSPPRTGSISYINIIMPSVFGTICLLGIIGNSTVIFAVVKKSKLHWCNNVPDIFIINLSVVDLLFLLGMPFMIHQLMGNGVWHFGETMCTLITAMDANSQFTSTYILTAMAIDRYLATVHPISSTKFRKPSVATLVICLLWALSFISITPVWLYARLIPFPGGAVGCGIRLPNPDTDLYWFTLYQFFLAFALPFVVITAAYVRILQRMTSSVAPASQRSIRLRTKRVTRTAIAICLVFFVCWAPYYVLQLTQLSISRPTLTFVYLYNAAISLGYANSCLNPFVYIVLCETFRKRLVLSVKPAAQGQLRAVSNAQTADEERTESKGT

The molecule `CN(C)Cc1cc2cc(-c3nnc(CSCCOc4ccccc4)o3)ccc2o1` [drawing 50] gave a pKi at human MCHR1 [1] of 6.63.
In turn, `CN(C)Cc1ccc2cc(-c3nnc(CSCCOc4ccccc4)o3)ccc2c1` [Example 11, Dimethyl-{6-[5-(2-phenoxy-ethylsulfanylmethyl)-[1,3,4]oxadiazol-2-yl]-naphthalen-2-ylmethyl}-amine] yielded a melting point of 95 to 96 °C.
The molecule `CN(C)Cc1ccc2cc(-c3nnc(CSCCOc4ccccc4)o3)ccc2c1` [drawing 44] displayed a Kb on human MCHR1 [2] of 11.8 nM. Further, the negative-log Ki (pKi) at human MCHR1 [1] was 8.09.
`CN(C)Cc1c[nH]c2ccc(-c3nnc(CSCCOc4ccccc4)o3)cc12.O=C(O)C(=O)O` [Example 6, dimethyl-{5-[5-(2-phenoxy-ethylsulfanylmethyl)-[1,3,4]oxadiazol-2-yl]-1H-indol-3-ylmethyl}-amine oxalate] came in with a melting point of 159 to 163 °C.
`CN(C)Cc1cc2cc(-c3nnc(CSCCOc4ccccc4)o3)ccc2[nH]1`: the pKi at human MCHR1 [1] was 6.72.
With `CN(C)Cc1cc2ccc(-c3nnc(CSCCOc4ccccc4)o3)cc2[nH]1` [Example 4, dimethyl-{6-[5-(2-phenoxy-ethylsulfanylmethyl)-[1,3,4]oxadiazol-2-yl]-1H-indol-2-ylmethyl}-amine], the melting point lay within 128 to 130 °C.
On human MCHR1 [1], `CN(C)Cc1c[nH]c2cc(-c3nnc(CSCCOc4ccccc4)o3)ccc12` showed a negative-log Ki (pKi) of 6.17.
In turn, `O=C(O)/C=C\C(=O)O.c1ccc(OCCSCc2nnc(-c3ccc4cc(CN5CCCC5)ccc4c3)o2)cc1` [Example 12, 2-(2-Phenoxy-ethylsulfanylmethyl)-5-(6-pyrrolidin-1-ylmethyl-naphthalen-2-yl)-[1,3,4]oxadiazole maleate] showed a melting point of 133 to 135 °C.
On human MCHR1 [2], `c1ccc(OCCSCc2nnc(-c3ccc4cc(CN5CCCCC5)ccc4c3)o2)cc1` [drawing 47] came in with an antagonist equilibrium constant (Kb) of 58.4 nM. The pKi at human MCHR1 [1] was 7.75.
`O=C1c2cc(-c3nnc(CSCCOc4ccccc4)o3)ccc2CN1CCN1CCCCC1` showed a pKi at human MCHR1 [1] of 5.70.
Same read-out and setting: in the case of `CN(C)Cc1cc2ccc(-c3nnc(CSCCOc4ccccc4)o3)cc2o1` [drawing 39] it was 6.43; in that of `O=C1c2ccc(-c3nnc(CSCCOc4ccccc4)o3)cc2CN1CCN1CCCCC1`, 5.97.
In turn, `CN(C)Cc1cc2cc(-c3nnc(CSCCOc4ccccc4)o3)ccc2[nH]1.O=C(O)C(=O)O` [Example 3, dimethyl-{5-[5-(2-phenoxy-ethylsulfanylmethyl)-[1,3,4]oxadiazol-2-yl]-1H-indol-2-ylmethyl}-amine oxalate] gave a melting point of 147 to 150 °C.
On human MCHR1 [2], `c1ccc(OCCSCc2nnc(-c3ccc4cc(CN5CCCC5)ccc4c3)o2)cc1` returned an antagonist equilibrium constant (Kb) of 7 nM. The molecule further gave a pKi on human MCHR1 [1] of 8.14.
`CN(C)Cc1cc2ccc(-c3nnc(CSCCOc4ccccc4)o3)cc2o1` [drawing 41]: on human MCHR1 [1], the negative-log Ki (pKi) is 6.42.
`CN(C)Cc1cc2ccc(-c3nnc(CSCCOc4ccccc4)o3)cc2[nH]1` [drawing 54] showed a pKi on human MCHR1 [1] of 7.46.
In turn, `CN(C)Cc1c[nH]c2cc(-c3nnc(CSCCOc4ccccc4)o3)ccc12.O=C(O)/C=C\C(=O)O` [Example 7, Dimethyl-{6-[5-(2-phenoxy-ethylsulfanylmethyl)-[1,3,4]oxadiazol-2-yl]-1H-indol-3-ylmethyl}-amine maleate] had a melting point of 127 to 129 °C.
`CN(C)Cc1cc2cc(-c3nnc(CSCCOc4ccccc4)o3)ccc2o1` [drawing 52] had a negative logarithm of the Ki (pKi) on human MCHR1 [1] of 6.82.
Molecule `c1ccc(OCCSCc2nnc(-c3ccc4cc(CN5CCCCC5)ccc4c3)o2)cc1` [Example 13, 1 -{6-[5-(2-phenoxy-ethylsulfanylmethyl)-[1,3,4]oxadiazol-2-yl]-naphthalen-2-ylmethyl}-piperidine] gave a melting point of 93 to 94 °C.
Still for that read-out and setting: in the case of `CN(C)Cc1cc2ccc(-c3nnc(CSCCOc4ccccc4)o3)cc2n1C.O=C(O)C(=O)O` [Example 5, dimethyl-{1-methyl-6-[5-(2-phenoxy-ethylsulfanylmethyl)-[1,3,4]oxadiazol-2-yl]-1H-indol-2-ylmethyl}-amine oxalate] it was 125.5 to 129 °C.
For `CN(C)Cc1cn(C)c2ccc(-c3nnc(CSCCOc4ccccc4)o3)cc12`, at human MCHR1 [1], the negative logarithm of the Ki (pKi) is 4.96.
In the case of `CN(C)Cc1cn(C)c2ccc(-c3nnc(CSCCOc4ccccc4)o3)cc12.O=C(O)C(=O)O` [Example 8, dimethyl-{1-methyl-5-[5-(2-phenoxy-ethylsulfanylmethyl) -[1,3,4]oxadiazol-2-yl]-1H-indol-3-ylmethyl}-amine oxalate], the melting point was 151 to 154 °C.

Values taken from patent US20070135485A1, “Novel mch receptor antagonists” (priority 2003, published 2007).
